Here are results for 3 molecules from patent publication US9890185B2, “Urea derivatives useful as kinase inhibitors” (Respivert Limited, priority 2013, dated 2018).

Each structure is given as a SMILES string.

The target of experiment [1] is Lck (Homo sapiens (Human), UniProt P06239). Nature of the experiment: KINOMEscan enzyme binding assay (Lck). The conditions noted are these: KINOMEscan technology; read-out: Dissociation Constant, Lck. How it is done: (§1) Kinase enzyme binding activities of compounds disclosed herein may be determined using a proprietary assay which measures active site-directed competition binding to an immobilized ligand (Fabian, M. A. et al., Nature Biotechnol., 2005, 23:329-336). These assays may be conducted by DiscoverX (formerly Ambit; San Diego, Calif.). The percentage inhibition produced by incubation with a test compound may be calculated relative to the non-inhibited control.

Experiment [2] addresses p38 MAPK β (Homo sapiens (Human), UniProt Q15759). Put plainly: KINOMEscan enzyme binding assay (p38 MAPKβ). To be noted: KINOMEscan technology; read-out: Dissociation Constant, p38 MAPK β. How it is done:
as §1

Experiment [3] concerns endotoxin (LPS)-induced uveitis. Put plainly: Endotoxin-induced uveitis in rats (in vivo assay vi). The arrangement: species or system Lewis rats. To be noted: for IL-1β Anterior tissue / IL-1β Posterior tissue: LPS-stimulated rats, topical to eye; for Cell counts: eyes of LPS-stimulated rats, topical. The procedure:
Male, Lewis rats (6-8 weeks old, Charles River UK Limited) are housed in cages of 3 at 19-21° C. with a 12 h light/dark cycle (07:00/19:00) and fed a standard diet of rodent chow and water ad libitum. […] Untreated rats are injected with PBS. […] Before administration, the solution or suspension to be administered is agitated for 5 minutes to ensure a uniform suspension. 6 hours after LPS dosing, animals are euthanized by overdose with pentobarbitone (i.v.). Following euthanasia, the right eye of each animal is enucleated and dissected into front (anterior) and back (posterior) sections around the lens. Each section is weighed and homogenised in 500 μL of sterile phosphate buffered saline followed by 20 minutes centrifugation at 12000 rpm at 4° C. The resulting supernatant is divided into 3 aliquots and stored at −80° C. until subsequent cytokine analysis by R&D DuoSet ELISA.

Lck, sequence (P06239 whole entry): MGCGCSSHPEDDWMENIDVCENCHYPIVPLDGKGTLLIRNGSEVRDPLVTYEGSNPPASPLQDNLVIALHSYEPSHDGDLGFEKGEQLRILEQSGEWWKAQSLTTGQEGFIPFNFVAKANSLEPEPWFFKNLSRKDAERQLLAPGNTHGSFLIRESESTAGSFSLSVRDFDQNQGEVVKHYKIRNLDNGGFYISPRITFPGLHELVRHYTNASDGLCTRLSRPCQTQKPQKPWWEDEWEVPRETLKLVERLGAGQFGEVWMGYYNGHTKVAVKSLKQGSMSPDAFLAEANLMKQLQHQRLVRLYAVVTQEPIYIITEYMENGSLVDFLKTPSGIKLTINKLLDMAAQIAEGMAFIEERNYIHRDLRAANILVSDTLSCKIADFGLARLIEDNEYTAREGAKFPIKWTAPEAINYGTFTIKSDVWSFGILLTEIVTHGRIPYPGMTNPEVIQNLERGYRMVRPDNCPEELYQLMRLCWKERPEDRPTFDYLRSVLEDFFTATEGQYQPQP
p38 MAPK β, sequence (Q15759 whole entry): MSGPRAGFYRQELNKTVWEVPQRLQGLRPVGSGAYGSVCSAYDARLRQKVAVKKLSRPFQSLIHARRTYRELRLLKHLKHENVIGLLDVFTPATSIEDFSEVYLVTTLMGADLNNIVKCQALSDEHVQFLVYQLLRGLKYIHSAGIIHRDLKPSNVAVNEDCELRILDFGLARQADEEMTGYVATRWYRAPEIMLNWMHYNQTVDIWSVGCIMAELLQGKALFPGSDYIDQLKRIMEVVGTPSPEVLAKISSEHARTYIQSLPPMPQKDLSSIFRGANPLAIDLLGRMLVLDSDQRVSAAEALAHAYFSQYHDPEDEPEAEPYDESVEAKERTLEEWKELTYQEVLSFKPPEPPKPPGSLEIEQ

`COc1c(NC(=O)Nc2ccc(Oc3ccnc(Nc4ccccc4)c3)c3ccccc23)cc(C(C)(C)C)cc1[S+](C)[O-]` (racemic) [Example 12, 1-(5-(tert-Butyl)-2-methoxy-3-(methylsulfinyl)phenyl)-3-(4-((2-(phenylamino)pyridin-4-yl)oxy)naphthalen-1-yl)urea]: the Kd in experiment [1] is 3.6 nM; in experiment [2] it was 57 nM.

With `COCCOCCOCCOc1cc(Nc2cc(Oc3ccc(NC(=O)Nc4cc(C(C)(C)C)cc(S(C)(=O)=O)c4OC)c4ccccc34)ccn2)cc(OC)c1` [Example 9, 1-(5-(tert-Butyl)-2-methoxy-3-(methylsulfonyl)phenyl)-3-(4-((2-((3-methoxy-5-(2-(2-(2-methoxyethoxy)ethoxy)ethoxy)phenyl)amino)pyridin-4-yl)oxy)naphthalen-1-yl)urea], the Kd in experiment [1] turned out to be 8.6 nM; in experiment [2], 340 nM.

With `COc1cc(Nc2cc(Oc3ccc(NC(=O)Nc4cc(C(C)(C)C)cc(P(C)(C)=O)c4OC)c4ccccc34)ccn2)cc(C(N)=O)c1` [Example 37, 3-((4-((4-(3-(5-(tert-butyl)-3-(dimethylphosphoryl)-2-methoxyphenyl)ureido)-naphthalen-1-yl)oxy)pyridin-2-yl)amino)-5-methoxybenzamide], the Kd in experiment [1] was determined as 1.2 nM. Besides, in experiment [3] (0.1 mg/mL), the “IL-1β Anterior tissue” value is given as 480.1 ± 113.7 pg/mL, the “IL-1β Posterior tissue” value turned out to be 319.6 ± 64.8 pg/mL and the Cell counts was found to be 39.1 ± 7.1. In experiment [3] (1 mg/mL), the “IL-1β Anterior tissue” value is given as 330.4 ± 94.2 pg/mL, the “IL-1β Posterior tissue” value is reported as 285.8 ± 96.4 pg/mL and the Cell counts is given as 32.6 ± 9.5. Also, the “Cytokine levels in anterior and posterior segments of the eyes” value in experiment [3] (rats treated with intravitreal endotoxin LPS) was “significantly reduced”.
